Data on 10 compounds can be found in US5208344A, “Naphthalenepropionic acid derivatives as anti-inflammatory/antiallergic agents” (American Home Products Corporation, priority 1991, dated 1993).

Holding throughout (assay type): cell-based
One assay deals with cyclooxygenase. As to the kind of experiment: inhibition of synthesis of cyclooxygenase products TxB2 and PGE2 (rat polymorphonuclear leukocytes). To be noted: rat PMN; for % Inhibition of CO (as PGE2): 10 μM, negative = potentiation of PGE2 synthesis; for IC50: read-out: IC50 (inhibition of CO, as PGE2). The method, then: (§1) Peritoneal PMN are obtained from female Wistar rats (150-250 g) that received an i.p. injection of 6% glycogen (10 ml). After 24 hours, rats are killed by CO2 asphysiation and peritoneal cells are harvested by peritoneal lavage using Ca^++ and MG^++ free Hanks' balanced salt solution (HBSS). The peritoneal exudate is centrifuged at 400 g for 10 minutes. After centrifugation, the lavaged fluid is removed and the cell pellet is resuspended in HBSS containing Ca^++ and MG^++ and 10 mM L-cysteine at a concentration of 2×10^7 cells/ml. To 1 ml portions of cell suspension, test drugs or vehicle are added and incubated at 37° C. for 10 minutes. Following this preincubation, the calcium ionophore (10 μM), a23187, is added together with 0.5 μM [14 C] arachidonic acid and further incubated for 10 minutes. The reaction is stopped by the addition of ice cold water (3 ml) and acidifying to pH 3.5. Lipoxygenase products are then extracted twice into diethyl ether. The pooled ether extracts are evaporated to dryness under nitrogen and the residue is redissolved in a small volume of methanol and spotted on aluminum backed pre-coated thin layer chromatographic plates. The samples are then cochromatographed with authentic reference 5-HETE in the solvent system - hexane: ether: acetic acid (50:50:3). After chromatography, the areas associated with 5-HETE standard are identified by autoradiography, cut out and quantitated by liquid scintillation.
However, in order to determine cyclooxygenase activity, the samples are cochromatographed with authentic reference TxB2 and PGE2 in the solvent system ethyl acetate: formic acid (80:1) and the upper phase of ethyl acetate: isooctane: acetic acid: water (110:50:20:100). After chromatography, the areas associated with the TxB2 and PGE2 standards are identified by autoradiography, cut out and quantitated by liquid scintillation techniques.

The target of assay [1] is T1, 5-lipoxygenase (Rattus norvegicus, UniProt P12527).
T1 construct: Peritoneal PMN are obtained from female Wistar rats (150-250 g); endogenous in cells; host or cells: rat glycogen-elicited peritoneal polymorphonuclear leukocytes, intact
T1 sequence (P12527 1-673): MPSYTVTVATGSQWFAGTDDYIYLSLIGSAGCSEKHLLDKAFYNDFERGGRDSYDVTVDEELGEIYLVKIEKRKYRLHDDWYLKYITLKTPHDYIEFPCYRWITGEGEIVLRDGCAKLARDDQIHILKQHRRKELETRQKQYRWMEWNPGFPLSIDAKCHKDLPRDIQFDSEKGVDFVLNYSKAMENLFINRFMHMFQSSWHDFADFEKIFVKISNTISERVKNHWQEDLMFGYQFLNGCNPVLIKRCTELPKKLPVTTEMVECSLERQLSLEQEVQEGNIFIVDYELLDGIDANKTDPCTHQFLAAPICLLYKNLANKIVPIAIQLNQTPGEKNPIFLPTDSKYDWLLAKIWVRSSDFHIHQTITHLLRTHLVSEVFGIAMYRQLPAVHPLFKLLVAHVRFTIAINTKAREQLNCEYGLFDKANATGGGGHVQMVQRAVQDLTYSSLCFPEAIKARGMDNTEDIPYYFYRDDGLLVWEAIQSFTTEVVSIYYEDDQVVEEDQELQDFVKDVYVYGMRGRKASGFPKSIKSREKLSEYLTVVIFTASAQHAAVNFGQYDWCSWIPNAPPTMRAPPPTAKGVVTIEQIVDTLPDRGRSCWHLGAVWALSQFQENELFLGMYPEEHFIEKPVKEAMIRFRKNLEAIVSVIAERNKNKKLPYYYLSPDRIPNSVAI
Briefly: inhibition of 5-HETE synthesis by rat glycogen elicited polymorphonuclear leukocytes. To be noted: rat PMN; for inhibition at 10 µM: negative = potentiation of 5-HETE synthesis, read-out: % Inhibition of 5-LO (as 5-HETE). How it is done: The assay of this Example measures the ability of the compounds of the invention to inhibit the synthesis of 5-HETE by rat glycogen elicited polymorphonuclear leukocytes.
as §1

Assay [2] deals with T2, 5-lipoxygenase (Homo sapiens, UniProt P09917).
T2 construct: Blood is obtained in 50-100 ml quantities from male donors; endogenous in cells; host or cells: human whole blood (leukocytes) from male donors
T2 sequence (P09917 1-674): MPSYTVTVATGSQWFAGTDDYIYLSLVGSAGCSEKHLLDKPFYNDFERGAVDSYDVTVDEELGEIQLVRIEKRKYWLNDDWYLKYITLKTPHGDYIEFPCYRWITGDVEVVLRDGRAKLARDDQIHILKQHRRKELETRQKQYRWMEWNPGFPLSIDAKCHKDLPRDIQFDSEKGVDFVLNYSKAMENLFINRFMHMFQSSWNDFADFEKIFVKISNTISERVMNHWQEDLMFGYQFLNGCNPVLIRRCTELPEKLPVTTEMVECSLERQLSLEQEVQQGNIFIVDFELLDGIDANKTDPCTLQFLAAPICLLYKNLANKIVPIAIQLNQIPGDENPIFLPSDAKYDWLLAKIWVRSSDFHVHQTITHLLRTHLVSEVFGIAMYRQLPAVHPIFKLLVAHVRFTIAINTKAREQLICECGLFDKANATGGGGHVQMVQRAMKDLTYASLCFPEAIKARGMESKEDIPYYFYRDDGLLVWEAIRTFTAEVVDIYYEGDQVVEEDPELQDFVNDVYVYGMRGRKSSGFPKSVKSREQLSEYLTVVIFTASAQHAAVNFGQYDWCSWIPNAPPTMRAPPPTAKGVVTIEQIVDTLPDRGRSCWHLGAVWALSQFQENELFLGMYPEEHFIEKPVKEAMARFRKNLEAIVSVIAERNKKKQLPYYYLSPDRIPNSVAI
As to the kind of experiment: inhibition of 5-lipoxygenase in human whole blood (LTB4). To be noted: human whole blood. The method, then: The assay of this Example measures the ability of the compounds tested to inhibit 5-lipxygenase in human whole blood.
Blood is obtained in 50-100 ml quantities from male donors. White blood cell counts and differentials are made. Two ml of blood are placed in a 15 ml polypropylene test tube. Compounds are solubilized in dimethylsulfoxide and diluted 1:10 in 10% bovine serum albumin in phosphate buffered saline, pH 7.4 resulting in a final dimethylsulfoxide concentration of 0.1% in the blood. Then, compounds are added to the blood in a shaking water bath at 37° C. for 10 minutes prior to the addition of 30 μM calcium ionophore (A23187; Sigma). After ionophore administration, whole blood samples are mixed and incubated for 20 minutes at 37° C. in a shaking water bath. Incubation is terminated by placing samples in an ice bath and immediately adding ethylene glycol-bis-(β-aminoethyl ether)-N,N,N',N'-tetraacetic acid (10 mM). Samples are mixed and centrifuged at 1200×g for 15 minutes at 4° C. Preparation of samples for evaluation by RIA or ELISA is carried out by the following protocol. Plasma is removed from sample tubes, placed in 15 ml polypropylene test tubes containing 8 ml methanol, and then vortexed to precipitate protein. Samples are stored at -70° C. overnight. The next day, samples are centrifuged at 200×g for 15 minutes at 4° C. to pellet the precipitate. Samples are dried in a Savant speed vac concentrator, reconstituted to original volume with ice cold RIA or ELISA buffer, and stored at -70° C. until assayed. The assay for eicosanoids (LTB4, TxB2, and PGE2) is performed as described by the manufacturer of the [^3 H]-RIA kit or ELISA kit (LTB4 -Amersham, TxB2 and PGE2 - Caymen Chemical).
The total eicosanoid level in 2 ml of blood is calculated and reported as ng/10^6 neutrophils. Significance is determined by a one-way analysis of variance with least significant difference (LSD) comparisons to control (p≤0.05) and IC50 's (μM) are determined by regression analysis (Finney, 1978). Drug effects are expressed as percent change form control values.
Compounds tested in vitro are solubilized in dimethylsulfoxide and diluted 1:10 in 10% bovine serum albumin in phosphate buffer saline resulting in a final dimethylsulfoxide concentration of 0.1% in the blood.

In general, inhibition refers to the drop in the measured response relative to a control, in per cent. In the case of `CC(C(=O)O)c1ccc2cc(OCC=Cc3ccccc3)ccc2c1` (stereo not drawn) [Example 20, α-Methyl-6-[(3-phenyl-2-propenyl)oxy]-2-naphthaleneacetic acid], in the assay on cyclooxygenase, the “% Inhibition of CO (as PGE2)” value is recorded as 14%. The inhibition at 10 µM at 5-lipoxygenase [1] was found to be 89%.
One may read the IC50 as the concentration needed to halve the response being measured. Turning to `O=C(O)Cc1ccc2cc(OCc3ccc4ccccc4n3)ccc2c1` [Example 21, 6-(2-Ouinolinylmethoxy)-2-naphthaleneacetic Acid], in the assay with cyclooxygenase, the IC50 is more than 250 µM. Further, on 5-lipoxygenase [1], the inhibition at 10 µM amounted to 95%.
In the case of `CC(C)(C(=O)O)c1ccc2cc(OCc3ccc4ccccc4n3)ccc2c1` [Example 22, α,α-Dimethyl-6-(2-quinolinylmethoxy)-2-naphthaleneacetic acid], the “% Inhibition of CO (as PGE2)” value with cyclooxygenase was -28%. The inhibition at 10 µM on 5-lipoxygenase [1] came to 87%.
As to `CC(C(=O)N(C)O)c1ccc2cc(OCc3ccc4ccccc4n3)ccc2c1` (stereo not drawn) [Example 23, N-Hydroxy-α-N-dimethyl-6-(2-quinolinylmethoxy)-2-naphthaleneacetamidedihydrate], the “% Inhibition of CO (as PGE2)” value with cyclooxygenase worked out at 17%. Also, at 5-lipoxygenase [1], the inhibition at 10 µM came to 75%. Besides, the inhibition at 5 µM on 5-lipoxygenase [2] (5 μM, read-out: % Inhibition of LTB4) was determined as 45%.
As to `Cc1ccc(S(=O)(=O)NC(=O)C(C)c2ccc3cc(OCc4ccc5ccccc5n4)ccc3c2)cc1` (stereo not drawn) [Example 25, α-Methyl-N-[(4-methylphenyl)sulfonyl]-6-(2-quinolinylmethoxy)-2-naphthaleneacetamide], the “% Inhibition of CO (as PGE2)” value in the assay on cyclooxygenase is given as -103%. The inhibition at 10 µM on 5-lipoxygenase [1] is 100%. Testing at 25 µM against 5-lipoxygenase [2] (25 μM) gave an inhibition of 45%.
`C[C@H](CO)c1ccc2cc(OCc3ccc4ccccc4n3)ccc2c1` [Example 26, (S)-β-methyl-6-(2-quinolinylmethoxy)-2-naphthalene ethanol]: in the assay on cyclooxygenase, the “% Inhibition of CO (as PGE2)” value was found to be 5%. At 5-lipoxygenase [1], the inhibition at 10 µM worked out at 97%. This compound also registered an inhibition at 100 µM against 5-lipoxygenase [2] (100 μM) of 8%.
As for `C[C@H](C=O)c1ccc2cc(OCc3ccc4ccccc4n3)ccc2c1` [Example 27, (S)-α-methyl-6-(2-quinolinylmethoxy)-2-naphthaleneacetaldehyde], the “% Inhibition of CO (as PGE2)” value in the assay with cyclooxygenase is listed as -62%. For the same compound, the inhibition at 10 µM at 5-lipoxygenase [1] was 100%.
In the case of `COC(=O)C(C)c1ccc2cc(OCc3ccc4ccccc4n3)ccc2c1` (stereo not drawn) [Example 28, α-Methyl-6-(2-quinolinylmethoxy)-2-naphthaleneacetic acid methyl ester], the IC50 in the assay with cyclooxygenase is more than 10 µM; on 5-lipoxygenase [1] (read-out: IC50 (inhibition of 5-LO, as 5-HETE)) it was 0.43 µM.
On to `COC(=O)[C@@H](C)c1ccc2cc(OCc3ccc4ccccc4n3)ccc2c1` [Example 29, (S)α-methyl-6-(2-quinolinylmethoxy)-2-naphthaleneacetic acid methyl ester], for which the “% Inhibition of CO (as PGE2)” value in the assay with cyclooxygenase is on record as -17%. The inhibition at 10 µM on 5-lipoxygenase [1] amounted to 91%. The same compound came in with an inhibition at 50 µM against 5-lipoxygenase [2] of 24%.
For `CONC(=O)C(C)c1ccc2cc(OCc3ccc4ccccc4n3)ccc2c1` (stereo not drawn) [Example 30, N-methoxy-α-methyl-6-(2-quinolinylmethoxy)-2-naphthaleneacetamide], in the assay with cyclooxygenase, the “% Inhibition of CO (as PGE2)” value was -27%. Moreover, the inhibition at 10 µM at 5-lipoxygenase [1] stood at 92%. At 5-lipoxygenase [2], this compound returned an inhibition at 50 µM of 13%.
